Converted amounts (≈) assume the structure as drawn. Read-outs that look alike come from different tables or passages of the source.
Assays:
[1] = system: Staphylococcus aureus (ATCC #29213); experiment: microbe, parasite or virus in culture; format: cell-based
[2] = system: Escherichia coli (ATCC#25922); experiment: microbe, parasite or virus in culture; format: cell-based
[3] = system: E. coli MG1655; format: cell-based
[4] = system: E. coli; format: cell-based
[5] = system: E. coli strain 14445 (MG1655 himA); format: cell-based
[6] = system: E. coli strain 14444 (MG1655 xylA); format: cell-based
[7] = system: T. harzianum DAOM 190830; format: cell-based, Trichoderma harzianum
[8] = system: E. coli 287 (ATCC #11775); format: cell-based
[9] = system: S. typhimurium hisF645; format: cell-based, Salmonella typhimurium
[10] = Staphylococcus aureus, ATCC29213, 18 h
[11] = Escherichia coli, ATCC25922, 18 h

| Structure (SMILES) | MIC [1, 10] | MIC [2, 11] | suitability as nitrogen source (growth, purple color) [3] | use as carbon source [4] | carbon source utilization result [7] | other results |
| --- | --- | --- | --- | --- | --- | --- |
| CN(C)[C@@H]1C(O)=C(C(N)=O)C(=O)[C@@]2(O)C(O)=C3C(=O)c4c(O)cccc4[C@@](C)(O)[C@H]3C[C@@H]12 [Tetracycline, tetracycline] | 0.25 to 2 µg/mL (≈ 0.563 to 4.5 µM) | 0.5 to 1 µg/mL (≈ 1.13 to 2.25 µM) |  |  |  | MIC [1]: 0.25 to 1 µg/mL |
| C[C@@H](O)[C@H](N)C(=O)O [L-threonine] |  |  | not suitable | can use |  | carbon source utilization, in words [5]: negative; carbon source utilization, in words [6]: negative |
| O=C(O)[C@@H]1CCCN1 [L-proline] |  |  | positive | can use | positive | carbon source utilization, in words [6]: negative |
| NC[C@H]1O[C@H](O[C@H]2[C@H](O)[C@@H](O[C@H]3O[C@H](CO)[C@@H](O)[C@H](N)[C@H]3O)[C@H](N)C[C@@H]2N)[C@H](O)[C@@H](O)[C@@H]1O [Kanamycin, kanamycin] | 16 to 32 µg/mL (≈ 33 to 66 µM) | 16 to 32 µg/mL (≈ 33 to 66 µM) |  |  |  | MIC [2]: 8 to 16 µg/mL |
| NC(=O)C[C@H](N)C(=O)O [L-asparagine] |  |  | positive | can use | positive | carbon source utilization result [8]: positive |
| N[C@@H](Cc1c[nH]cn1)C(=O)O [L-histidine] |  |  | not suitable |  |  | carbon source utilization result [8]: negative; growth stimulation by supplement (well color) [9]: turned purple |
| CC1(C)S[C@@H]2[C@H](NC(=O)[C@H](N)c3ccccc3)C(=O)N2[C@H]1C(=O)O [Ampicillin, ampicillin] | 1 to 4 µg/mL (≈ 2.86 to 11.4 µM) | 1 to 2 µg/mL (≈ 2.86 to 5.72 µM) |  |  |  | MIC [1]: 1 to 2 µg/mL; MIC [2]: 2 to 4 µg/mL |
| N[C@@H](CCC(=O)O)C(=O)O [L-glutamic acid] |  |  | positive | can use | positive | carbon source utilization, in words [5]: negative |

Reference: patent US6727076B2 (priority 1995, dated 2004)
